Laboratory results reported in ChEMBL document CHEMBL5356971, “Optimization of the Antibacterial Spectrum and the Developability Profile of the Novel-Class Natural Product Corramycin” (J Med Chem, 2023).

Assays:
[1] = Metabolic stability in mouse kidney assessed as parent compound remaining measured after 1 hrs by UPLC-MS analysis; type: ADME, tissue-based; conditions: read-out: Stability
Escherichia coli [2] = assay: Antibacterial activity against wild type Escherichia coli ATCC 35218 assessed as reduction in microbial growth incubated for 20 to 22 hrs by CLSI based analysis; type: functional; conditions: time 20-22 hrs
Klebsiella pneumoniae [3] = assay: Antibacterial activity against Klebsiella pneumoniae ATCC 13883 harboring SbmA assessed as reduction in microbial growth incubated for 20 to 22 hrs by CLSI based analysis; type: functional; conditions: time 20-22 hrs
[4] = Metabolic stability in mouse kidney assessed as parent compound remaining measured after 4 hrs by UPLC-MS analysis; type: ADME, tissue-based; conditions: read-out: Stability
[5] = Metabolic stability in mouse lung assessed as parent compound remaining measured after 1 hrs by UPLC-MS analysis; type: ADME, tissue-based; conditions: mouse lung, read-out: Stability
[6] = Metabolic stability in mouse lung assessed as parent compound remaining measured after 4 hrs by UPLC-MS analysis; type: ADME, tissue-based; conditions: mouse lung, read-out: Stability
Escherichia coli [7] = assay: Antibacterial activity against Escherichia coli ATCC 35218 harboring SbmA assessed as reduction in microbial growth incubated for 20 to 22 hrs by CLSI based analysis; type: functional; conditions: time 20-22 hrs
Klebsiella pneumoniae [8] = assay: Antibacterial activity against wild type Klebsiella pneumoniae ATCC 13883 assessed as reduction in microbial growth incubated for 20 to 22 hrs by CLSI based analysis; type: functional; conditions: time 20-22 hrs
Acinetobacter baumannii = assay: Antibacterial activity against wild type Acinetobacter baumannii ATCC 19606 assessed as reduction in microbial growth incubated for 20 to 22 hrs by CLSI based analysis; type: functional; conditions: time 20-22 hrs
Escherichia coli [9] = assay: Antibacterial activity against Escherichia coli ATCC 35218 assessed as reduction in microbial growth incubated for 20 to 22 hrs by CLSI based analysis; type: functional; conditions: time 20-22 hrs

SMILES	remaining at 1 h [1]	MIC (Escherichia coli [2])	MIC (Klebsiella pneumoniae [3])	remaining at 4 h [4]	remaining at 1 h [5]	remaining at 4 h [6]	MIC (Escherichia coli [7])	MIC (Klebsiella pneumoniae [8])	MIC (Acinetobacter baumannii)	MIC (Escherichia coli [9])
CO[C@@H](CNC(=O)[C@H](NC(=O)[C@H](O)[C@H](C)O)[C@H](O)c1cncn1C)[C@H](O)[C@H](O)C(=O)N(C)[C@@H](Cc1ccccc1)C(=O)N[C@@H](C)C(=O)N[C@H](C(=O)N[C@@H](CO)C(=O)N[C@H](C(=O)N[C@H](C(=O)N[C@@H](CO)C(=O)NCc1cc(=O)c(O)cn1O)C(C)(C)C)C(C)(C)O)C(C)(C)O	85%	0.06 mg/L	> 32 mg/L	75%	91%	85%	1 mg/L	1 mg/L	1 mg/L	
CC[C@H](C)[C@H](NC(=O)[C@@H](NC(=O)[C@H](CO)NC(=O)[C@@H](NC(=O)CNC(=O)[C@H](Cc1ccccc1)N(C)C(=O)[C@@H](O)[C@@H](O)[C@H](CNC(=O)[C@H](NC(=O)[C@H](O)[C@H](C)O)[C@H](O)c1cncn1C)OC)C(C)(C)O)C(C)(C)O)C(=O)N[C@@H](CO)C(=O)N[C@@H](CCC(=O)NCc1cc(=O)c(O)cn1O)C(=O)O	84%	0.03 mg/L	32 mg/L	42%	73%	33%	0.25 mg/L	0.12 mg/L	0.5 mg/L	
CO[C@@H](CNC(=O)[C@H](NC(=O)[C@H](O)[C@H](C)O)[C@H](O)c1cncn1C)[C@H](O)[C@H](O)C(=O)N(C)[C@@H](Cc1ccccc1)C(=O)NCC(=O)N[C@H](C(=O)N[C@@H](CO)C(=O)N[C@H](C(=O)N[C@H](C(=O)N[C@@H](CO)C(=O)NCc1cc(=O)c(O)cn1O)C(C)(C)C)C(C)(C)O)C(C)(C)O	99%	< 0.01 mg/L	> 32 mg/L	84%	84%	73%	0.5 mg/L	0.03 mg/L	0.5 mg/L	
CO[C@@H](CNC(=O)[C@H](NC(=O)[C@H](O)[C@H](C)O)[C@H](O)c1cncn1C)[C@H](O)[C@H](O)C(=O)N(C)[C@@H](Cc1ccc(F)cc1)C(=O)NCC(=O)N[C@H](C(=O)N[C@@H](CO)C(=O)N[C@H](C(=O)N[C@H](C(=O)N[C@@H](CO)C(=O)NCc1cccc(O)c1O)C(C)(C)C)C(C)(C)O)C(C)(C)O	11%	0.06 mg/L		0%	0%	0%		0.5 mg/L	0.5 mg/L	
CO[C@@H](CNC(=O)[C@H](NC(=O)[C@H](O)[C@H](C)O)[C@H](O)c1cncn1C)[C@H](O)[C@H](O)C(=O)N(C)[C@@H](Cc1ccccc1)C(=O)NCC(=O)N[C@H](C(=O)N[C@@H](CO)C(=O)N[C@H](C(=O)N[C@H](C(=O)N[C@@H](CO)C(=O)N[C@@H](CN)C(=O)NCc1cc(=O)c(O)cn1O)C(C)(C)C)C(C)(C)O)C(C)(C)O	93%	0.02 mg/L	> 32 mg/L	83%	87%	75%	4 mg/L	0.25 mg/L	0.25 mg/L	
CO[C@@H](CNC(=O)[C@H](NC(=O)[C@H](O)[C@H](C)O)[C@H](O)c1cncn1C)[C@H](O)[C@H](O)C(=O)N(C)[C@@H](Cc1ccccc1)C(=O)NCC(=O)N[C@H](C(=O)N[C@@H](CO)C(=O)O)C(C)(C)O										> 64 mg/L
CO[C@@H](CNC(=O)[C@H](NC(=O)[C@H](O)[C@H](C)O)[C@H](O)c1cncn1C)[C@H](O)[C@H](O)C(=O)N(C)[C@@H](Cc1ccccc1)C(=O)NCC(=O)N[C@H](C(=O)N[C@@H](CO)C(=O)N[C@H](C(=O)N[C@H](C(=O)N[C@@H](CO)C(=O)N[C@H](CCC(=O)NCc1cc(=O)c(O)cn1O)C(=O)O)C(C)(C)C)C(C)(C)O)C(C)(C)O	100%	< 0.01 mg/L	32 mg/L	67%	89%	77%	1 mg/L	0.03 mg/L	0.5 mg/L	
CO[C@@H](CNC(=O)[C@H](NC(=O)[C@H](O)[C@H](C)O)[C@H](O)c1cncn1C)[C@H](O)[C@H](O)C(=O)N(C)[C@@H](Cc1ccccc1)C(=O)O										> 64 mg/L
CO[C@@H](CNC(=O)[C@H](NC(=O)[C@H](O)[C@H](C)O)[C@H](O)c1cncn1C)[C@H](O)[C@H](O)C(=O)N(C)[C@@H](Cc1ccc(F)cc1)C(=O)NCC(=O)N[C@H](C(=O)N[C@@H](CO)C(=O)N[C@H](C(=O)N[C@H](C(=O)N[C@@H](CCC(=O)NCc1cc(=O)c(O)cn1O)C(=O)NCCN)C(C)(C)C)C(C)(C)O)C(C)(C)O	61%	0.01 mg/L	> 32 mg/L	41%	88%	75%	4 mg/L	0.12 mg/L	1 mg/L	
CO[C@@H](CNC(=O)[C@H](NC(=O)[C@H](O)[C@H](C)O)[C@H](O)c1cncn1C)[C@H](O)[C@H](O)C(=O)N(C)[C@@H](Cc1ccccc1)C(=O)NCC(=O)N[C@H](C(=O)N[C@@H](CO)C(=O)N[C@H](C(=O)N[C@@H](CC(C)C)C(=O)N[C@@H](CO)C(=O)N[C@@H](CCC(=O)NCc1cc(=O)c(O)cn1O)C(=O)O)C(C)(C)O)C(C)(C)O	22%	0.03 mg/L	8 mg/L	0%	1%	0%	0.12 mg/L	0.25 mg/L	0.5 mg/L	
CO[C@@H](CNC(=O)[C@H](NC(=O)[C@H](O)[C@H](C)O)[C@H](O)c1cncn1C)[C@H](O)[C@H](O)C(=O)N(C)[C@@H](Cc1ccccc1)C(=O)NCC(=O)N[C@H](C(=O)N[C@@H](CO)C(=O)N[C@H](C(=O)N[C@@H](CC(C)C)C(=O)O)C(C)(C)O)C(C)(C)O										32 mg/L
CO[C@@H](CNC(=O)[C@H](NC(=O)[C@H](O)[C@H](C)O)[C@H](O)c1cncn1C)[C@H](O)[C@H](O)C(=O)N(C)[C@@H](Cc1ccccc1)C(=O)NCC(=O)N[C@H](C(=O)N[C@@H](CO)C(=O)N[C@H](C(=O)O)C(C)(C)O)C(C)(C)O										> 64 mg/L
CO[C@@H](CNC(=O)[C@H](NC(=O)[C@H](O)[C@H](C)O)[C@H](O)c1cncn1C)[C@H](O)[C@H](O)C(=O)N(C)[C@@H](Cc1ccc(F)cc1)C(=O)NCC(=O)N[C@H](C(=O)N[C@@H](CO)C(=O)N[C@H](C(=O)N[C@H](C(=O)N[C@@H](CO)C(=O)NCc1ccc(O)c(O)c1)C(C)(C)C)C(C)(C)O)C(C)(C)O	6%	0.03 mg/L		0%	0%	0%		0.25 mg/L	0.5 mg/L	
CO[C@@H](CNC(=O)[C@H](NC(=O)[C@H](O)[C@H](C)O)[C@H](O)c1cncn1C)[C@H](O)[C@H](O)C(=O)N(C)[C@@H](Cc1ccc(F)cc1)C(=O)NCC(=O)N[C@H](C(=O)N[C@@H](CO)C(=O)N[C@H](C(=O)N[C@H](C(=O)N[C@@H](CCC(=O)NCc1cc(=O)c(O)cn1O)C(=O)O)C(C)(C)C)C(C)(C)O)C(C)(C)O	92%	0.01 mg/L	> 32 mg/L	101%	101%	86%	0.25 mg/L	0.12 mg/L	0.25 mg/L	
